Each block holds one molecule with its values, some of them ahead of it.
What was measured:
[1] = target: T1, Prostaglandin G/H synthase 2 (Ovis aries, UniProt P79208)
T1 sequence (P79208 whole entry): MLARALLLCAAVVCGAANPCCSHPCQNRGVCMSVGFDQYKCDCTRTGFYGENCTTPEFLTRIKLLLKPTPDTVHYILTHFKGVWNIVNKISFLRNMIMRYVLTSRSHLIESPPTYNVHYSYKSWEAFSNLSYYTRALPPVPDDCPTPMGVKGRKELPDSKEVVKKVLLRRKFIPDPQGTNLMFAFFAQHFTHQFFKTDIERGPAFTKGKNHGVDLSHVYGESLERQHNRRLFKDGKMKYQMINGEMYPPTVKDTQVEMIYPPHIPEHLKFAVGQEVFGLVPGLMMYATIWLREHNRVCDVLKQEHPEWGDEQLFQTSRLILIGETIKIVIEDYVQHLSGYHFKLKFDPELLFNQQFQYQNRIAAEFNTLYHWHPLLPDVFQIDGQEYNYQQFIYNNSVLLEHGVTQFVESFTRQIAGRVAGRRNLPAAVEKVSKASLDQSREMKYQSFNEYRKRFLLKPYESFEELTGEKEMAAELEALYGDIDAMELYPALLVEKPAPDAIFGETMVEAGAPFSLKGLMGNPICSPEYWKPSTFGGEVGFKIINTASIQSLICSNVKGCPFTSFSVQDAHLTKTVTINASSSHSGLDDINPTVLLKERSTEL

MCF7 [2] = assay: cells; type: functional, cell-based; settings: Homo sapiens
Tubulin = type: protein-complex assay, Homo sapiens
[3] = target: T1, Prostaglandin G/H synthase 2; remark: listed apart in the source
Rattus norvegicus = species on record: Rattus norvegicus; assay: animal or person; type: functional
MCF7 [4] = assay: cells; type: functional, cell-based; settings: Homo sapiens, MCF7, 48 h
[5] = target: T2, Prostaglandin G/H synthase 1 (Mus musculus, UniProt P22437)
T2 sequence (P22437 whole entry): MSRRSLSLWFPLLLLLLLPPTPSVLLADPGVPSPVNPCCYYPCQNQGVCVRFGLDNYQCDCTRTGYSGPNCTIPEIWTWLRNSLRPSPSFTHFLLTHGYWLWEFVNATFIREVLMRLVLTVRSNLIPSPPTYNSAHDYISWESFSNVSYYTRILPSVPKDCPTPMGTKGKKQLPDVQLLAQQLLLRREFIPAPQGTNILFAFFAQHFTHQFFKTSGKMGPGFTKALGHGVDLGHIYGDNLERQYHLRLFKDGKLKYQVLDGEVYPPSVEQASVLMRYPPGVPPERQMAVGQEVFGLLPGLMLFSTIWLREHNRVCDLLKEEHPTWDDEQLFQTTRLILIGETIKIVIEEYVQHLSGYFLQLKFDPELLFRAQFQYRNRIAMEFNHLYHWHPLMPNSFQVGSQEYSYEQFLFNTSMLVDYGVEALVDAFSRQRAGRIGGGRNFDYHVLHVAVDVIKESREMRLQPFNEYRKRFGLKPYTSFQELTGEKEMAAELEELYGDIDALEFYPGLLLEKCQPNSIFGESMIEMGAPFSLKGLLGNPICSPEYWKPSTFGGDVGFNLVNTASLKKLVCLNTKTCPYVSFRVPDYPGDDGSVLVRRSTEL

IC50 [1]: 196 nM
SMILES: [N-]=[N+]=Nc1ccc(C2=C(c3ccccc3)C(=O)OC2)cc1

IC50 [1]: 1550 nM
SMILES: Cc1ccc(-c2cc(C(F)(F)F)nn2-c2ccc(N=[N+]=[N-])cc2)cc1

IC50 (MCF7 [2]): 1800 nM
SMILES: COc1ccc(-c2coc(=O)n2-c2cc(OC)c(OC)c(OC)c2)cc1N

IC50 (Tubulin): > 50000 nM
SMILES: COc1ccc([C@H]2OCO[C@@H]2c2cc(OC)c(OC)c(OC)c2)cc1O

IC50 (MCF7 [2]): 4900 nM
SMILES: COc1ccc(-c2oc(O)nc2-c2cc(OC)c(OC)c(OC)c2)cc1N

IC50 [3]: 31.6 nM
SMILES: CC1C(c2ccc(F)cc2)=C(c2ccc(S(C)(=O)=O)cc2)ON1C (stereo not given)

SMILES: CS(=O)(=O)c1ccc(-c2snnc2-c2ccc(F)cc2)cc1
ED50 (Rattus norvegicus): 0.7 mg/kg

IC50 (MCF7 [4]): 1300 nM
SMILES: COC(=O)c1ccc(-n2nc(C(F)(F)F)cc2-c2cc(OC)c(OC)c(OC)c2)cc1

IC50 (Tubulin): 4000 to 6000 nM
SMILES: COc1ccc([C@@H]2OCO[C@H]2c2cc(OC)c(OC)c(OC)c2)cc1O

IC50 [5]: 3 nM
SMILES: CC1(C)OC(c2ccc(S(N)(=O)=O)cc2)=C(c2cccc(F)c2)C1=O [POLMACOXIB]
